Data from patent US20170065667A1, “METHODS FOR SYNCHRONIZATION OF ESTROUS CYCLES AND OVULATION FOR FIXED TIME ARTIFICIAL INSEMINATION IN CATTLE” (Parnell Technologies Pty Ltd., priority 2014, published 2017).
Read-outs that look alike come from different tables or passages of the source.

Columns and labels:
lactating dairy cows [1] = experiment: Experiment 2: P/AI on 11 commercial dairies, Ovsynch vs. Ovsynch + second cloprostenol sodium injection; format: in vivo, cattle
Description: An experiment was performed on 11 commercial dairies in different locations in the United States: 3 dairies in Wisconsin; 3 dairies in California; 2 dairies in New York; 1 dairy in Pennsylvania; 1 dairy in New Mexico; and 1 dairy in Texas. Although overall management was quite different for each herd, each herd used the same reproductive management protocol during this experiment. Cows were randomly assigned within herd, parity, and date to one of three treatment groups at about 40 to about 46 days in milk. One of the treatment groups, Presynch-Ovsynch with heat detection, was not considered in the present analysis. Therefore only two treatment groups were utilized for all analyses, as shown in the diagram for Experiment 2 in FIG. 2.
All animals were synchronized using a GnRH composition (about 100 mcg of gonadorelin acetate per mL, GONAbreed®, Parnell Technologies Pty Ltd, Alexandria, Australia) and a PGF2α analog composition (about 250 mcg of cloprostenol sodium per mL, estroPLAN®, Parnell Technologies Pty Ltd, Alexandria, Australia).
(§1) One treatment group began at about 47 to about 53 days in milk where the cows received a first 1 mL intramuscular injection of a gonadorelin acetate composition. At about 54 to about 60 days in milk, the cows received a first 2 mL intramuscular injection of a cloprostenol sodium composition. At about 56 to about 62 days in milk (about 56 hours after the first injection of the cloprostenol sodium composition), the cows received a second 1 mL intramuscular injection of a gonadorelin acetate composition. And at about 57 to about 63 days in milk (about 16 hours after the second injection of the gonadorelin acetate composition), the animals received AI, concluding the Ovsynch phase.
as §1, with “The other treatment group” for “One treatment group”, “a first 2 mL intramuscular injection of a cloprostenol sodium composition. At about 55 to about 61 days in milk (about 24 hours after the first injection of the cloprostenol sodium composition), the cows received a second 2 mL” for “a first 2 mL”
Pregnancy diagnosis was performed with ultrasound utilizing the normal schedule for each herd (Wisconsin and Pennsylvania herds, 31-33 days after AI; California, New York, New Mexico, and Texas herds, 37-43 days after AI). Data on all treatments, AI, and pregnancy diagnosis were recorded for each individual cow in most cases (n=1,912). In some cows, data was extrapolated from other recorded data due to missing one treatment recording (n=110) or two or more treatment recordings in a cow (n=126). Pregnancy was based on a verified pregnancy diagnosis. Non-pregnancy was based on absence of pregnancy at a pregnancy diagnosis or a rebreeding to an estrus prior to pregnancy diagnosis. Statistical analyses were performed using PROC Logistic in SAS. Treatment and parity were forced into the model and factors were kept in the model if they were significant at P<0.15.

lactating dairy cows [2] = conditions: cited from earlier work

O=C(O)CCC/C=C\CC1C(O)CC(O)C1/C=C/C(O)COc1cccc(Cl)c1 (stereo not drawn) [cloprostenol sodium]
Effect of second cloprostenol sodium injection, Difference in P/AI (lactating dairy cows [1]; All Multiparous): +10.65% (P = 0.073)
Effect of second cloprostenol sodium injection, Difference in P/AI (lactating dairy cows [1]; Fourth or Greater lactation): +0.09% (P = 0.517)
P/AI, % (n/n) (lactating dairy cows [1]; Ovsynch (one cloprostenol sodium injection), farm CA-01): 29.4%
percentage of cows pregnant per AI (lactating dairy cows [1]; Ovsynch (one injection), All Multiparous): 32.01 (259/809) %
percentage of cows pregnant per AI (lactating dairy cows [1]; Ovsynch (one injection), Fourth or Greater lactation): 30.09 (65/216) %
percentage of cows pregnant per AI (lactating dairy cows [1]; Ovsynch (one injection), Primiparous): 37.07 (99/267) %
percentage of cows pregnant per AI (lactating dairy cows [1]; Ovsynch (one injection), Second and Third lactation): 32.71 (194/593) %
P/AI, % (n/n) (lactating dairy cows [1]; Ovsynch (one injection), Total of 11 farms): 33.3%
P/AI, % (n/n) (lactating dairy cows [1]; Ovsynch (one injection), farm CA-02): 35.3%
P/AI, % (n/n) (lactating dairy cows [1]; Ovsynch (one injection), farm CA-O3): 30.4%
P/AI, % (n/n) (lactating dairy cows [1]; Ovsynch (one injection), farm NM-04): 35.2%
P/AI, % (n/n) (lactating dairy cows [1]; Ovsynch (one injection), farm NY-05): 32.7%
P/AI, % (n/n) (lactating dairy cows [1]; Ovsynch (one injection), farm NY-06): 29.4%
P/AI, % (n/n) (lactating dairy cows [1]; Ovsynch (one injection), farm PA-07): 39.2%
P/AI, % (n/n) (lactating dairy cows [1]; Ovsynch (one injection), farm TX-08): 37.7%
P/AI, % (n/n) (lactating dairy cows [1]; Ovsynch (one injection), farm WI-09): 28.1%
P/AI, % (n/n) (lactating dairy cows [1]; Ovsynch (one injection), farm WI-10): 35.3%
P/AI, % (n/n) (lactating dairy cows [1]; Ovsynch (one injection), farm WI-11): 26.9%
P/AI, % (n/n) (lactating dairy cows [1]; Ovsynch + second cloprostenol sodium injection, farm CA-01): 36.4%
percentage of cows pregnant per AI (lactating dairy cows [1]; Ovsynch + second injection, All Multiparous): 35.42 (288/813) %
percentage of cows pregnant per AI (lactating dairy cows [1]; Ovsynch + second injection, Fourth or Greater lactation): 30.36 (68/224) %
percentage of cows pregnant per AI (lactating dairy cows [1]; Ovsynch + second injection, Primiparous): 38.22 (99/259) %
percentage of cows pregnant per AI (lactating dairy cows [1]; Ovsynch + second injection, Second and Third lactation): 37.35 (220/589) %
P/AI, % (n/n) (lactating dairy cows [1]; Ovsynch + second injection, Total of 11 farms): 36.1%
P/AI, % (n/n) (lactating dairy cows [1]; Ovsynch + second injection, farm CA-02): 39.8%
P/AI, % (n/n) (lactating dairy cows [1]; Ovsynch + second injection, farm CA-O3): 34.1%
P/AI, % (n/n) (lactating dairy cows [1]; Ovsynch + second injection, farm NM-04): 37.7%
P/AI, % (n/n) (lactating dairy cows [1]; Ovsynch + second injection, farm NY-05): 31.2%
P/AI, % (n/n) (lactating dairy cows [1]; Ovsynch + second injection, farm NY-06): 42.0%
P/AI, % (n/n) (lactating dairy cows [1]; Ovsynch + second injection, farm PA-07): 43.6%
P/AI, % (n/n) (lactating dairy cows [1]; Ovsynch + second injection, farm TX-08): 29.8%
P/AI, % (n/n) (lactating dairy cows [1]; Ovsynch + second injection, farm WI-09): 40.4%
P/AI, % (n/n) (lactating dairy cows [1]; Ovsynch + second injection, farm WI-10): 37.0%
P/AI, % (n/n) (lactating dairy cows [1]; Ovsynch + second injection, farm WI-11): 26.9%
Effect of second cloprostenol sodium injection, Difference in P/AI (lactating dairy cows [1]; Second and Third lactation): +14.19% (P = 0.047)
Effect of second cloprostenol sodium injection, relative difference in P/AI (lactating dairy cows [1]; Total of 11 farms): +8.50%
Effect of second cloprostenol sodium injection, relative difference in P/AI (lactating dairy cows [1]; farm CA-01): +23.64%
Effect of second cloprostenol sodium injection, relative difference in P/AI (lactating dairy cows [1]; farm CA-02): +12.99%
Effect of second cloprostenol sodium injection, relative difference in P/AI (lactating dairy cows [1]; farm CA-O3): +12.03%
Effect of second cloprostenol sodium injection, relative difference in P/AI (lactating dairy cows [1]; farm NM-04): +7.04%
Effect of second cloprostenol sodium injection, relative difference in P/AI (lactating dairy cows [1]; farm NY-05): −4.47%
Effect of second cloprostenol sodium injection, relative difference in P/AI (lactating dairy cows [1]; farm NY-06): +43.11%
Effect of second cloprostenol sodium injection, relative difference in P/AI (lactating dairy cows [1]; farm PA-07): +10.98%
Effect of second cloprostenol sodium injection, relative difference in P/AI (lactating dairy cows [1]; farm TX-08): −20.86%
Effect of second cloprostenol sodium injection, relative difference in P/AI (lactating dairy cows [1]; farm WI-09): +43.75%
Effect of second cloprostenol sodium injection, relative difference in P/AI (lactating dairy cows [1]; farm WI-10): −4.94%
Effect of second cloprostenol sodium injection, relative difference in P/AI (lactating dairy cows [1]; farm WI-11): 0.0%
Effect of second cloprostenol sodium injection, Difference in P/AI (lactating dairy cows [1]; primiparous): +3.10% (P = 0.393)
effect on fertility of increasing the dose (lactating dairy cows [2]; dose from 500 to 750 μg, 7 day protocol): tended to increase fertility

prostaglandin F2α [PGF]
Effect of second cloprostenol sodium injection, relative difference in P/AI (lactating dairy cows [1]; Total of 11 farms): 8.5%
absolute improvement in fertility due to the second PGF treatment (lactating dairy cows [1]; all results combined, 11 farms): ~3%
improvement in fertility in first service cows, two vs. one PGF2α (lactating dairy cows [2]; 7 day Ovsynch, not statistically significant): 5.7%
fertility in first service cows (lactating dairy cows [2]; one PGF2α treatment, 7 day Ovsynch): 47.0%
fertility in first service cows (lactating dairy cows [2]; two PGF2α treatments, 7 day Ovsynch): 52.7%
